According to the NIST ThermoML archive (doi:10.1021/je900093h):
Numbers after ± are expanded uncertainties.

Experiments:
[1] = molar enthalpy of vaporization or sublimation; conditions: 304.79 K; Liquid; Static calorimetry
[2] = Molar enthalpy of transition or fusion; conditions: Crystal
[3] = molar heat capacity at constant pressure; conditions: 101.33 kPa, Vacuum adiabatic calorimetry

CCCCCCCCCC(=O)OCC [ethyl decanoate]
Conditions	Molar enthalpy of transition or fusion [kcal/mol]	molar enthalpy [kcal/mol]
[1]	–	16.7 ± 0.335
[2]	7.717 ± 0.0526	–

molar heat capacity at constant pressure [J/K/mol], [3]
Conditions	Crystal	Liquid
5 K	0.498 ± 0.019	–
10 K	4.477 ± 0.053	–
15 K	11.92 ± 0.12	–
20 K	21.04 ± 0.19	–
25 K	30.97 ± 0.27	–
30 K	41.18 ± 0.34	–
35 K	51.36 ± 0.43	–
40 K	61.27 ± 0.51	–
45 K	71.2 ± 0.59	–
50 K	80.91 ± 0.66	–
60 K	98.99 ± 0.81	–
70 K	115.2 ± 0.9	–
80 K	130.2 ± 1.1	–
90 K	144.3 ± 1.2	–
100 K	157.4 ± 1.3	–
110 K	169.3 ± 1.4	–
120 K	180 ± 1.5	–
130 K	189.6 ± 1.5	–
140 K	198.3 ± 1.6	–
150 K	206.8 ± 1.7	–
160 K	214.7 ± 1.7	–
170 K	222.5 ± 1.8	–
180 K	230.5 ± 1.9	–
190 K	238.8 ± 1.9	–
200 K	247.4 ± 2	–
210 K	256.7 ± 2.1	–
220 K	266.7 ± 2.2	–
230 K	277.5 ± 2.2	–
240 K	288.9 ± 2.3	–
250 K	301.2 ± 2.4	–
253.6 K	305.7 ± 2.5	386.5 ± 3.1
260 K	–	388.1 ± 3.1
270 K	–	391.3 ± 3.2
280 K	–	395.2 ± 3.2
290 K	–	399.6 ± 3.2
298.15 K	–	403.5 ± 3.3
300 K	–	404.4 ± 3.3
310 K	–	409.6 ± 3.3
320 K	–	415 ± 3.3
330 K	–	420.6 ± 3.4
340 K	–	426.4 ± 3.4
350 K	–	432.3 ± 3.5
360 K	–	438.3 ± 3.5
370 K	–	444.5 ± 3.6
